Measured values as given in patent publication US10736906B2, “Method to enhance tissue regeneration” (CHILDREN'S MEDICAL CENTER CORPORATION, priority 2006, dated 2020).

Columns and labels:
Assay type in all cases: in vivo
[1] = tested on: hematopoietic stem cells (HSCs); test: HSC formation in zebrafish embryos (runx1, c-myb expression), with heat-shock inducible wnt modulators
Protocol: The functional consequences of the PGE2/wnt interaction in HSC formation during embryonic development were analyzed by examining the expression of the HSC markers runx1 and c-myb. Heat shock induction of a canonical wnt ligand, wnt8, at ten somites led to enhanced HSC formation at 36 hours post fertilization (hpf; 47/54). When wnt8 induction was followed by exposure to indomethacin (10 μM, 16-36 hpf) HSC formation was reduced to or below wild-type levels ( 43/46).
Inducible negative regulators of wnt activity were used in combination with dmPGE2 treatment to functionally localize the interaction between the PG and wnt pathways. Dkk1 antagonizes the wnt pathway at the level of membrane binding and the initiation of the wnt signaling cascade. Dkk induction in hs:dkk1 transgenic embryos inhibited HSC development ( 34/49). Exposure to exogenous dmPGE2 rescued the dkk1-mediated effect on HSC formation ( 28/51, 10 μM, 16-36 hpf). Axin is a central component of the β-catenin destruction complex and thus a negative regulator of the wnt signaling cascade in the cytosolic compartment. […] Similarly, a dominant-negative form of the β-catenin transcriptional co-activator TCF abolished HSC formation ( 60/62), and no rescue was affected via dmPGE2 exposure.
The wnt pathway can actively enhance HSC proliferation through signaling from the HSC niche as well as within HSCs themselves. PGE2 regulates HSC formation at the level of the vascular niche as well as within the HSCs. North et al., 2007. In order to identify transcriptional programs regulated by the wnt signaling pathway, genes involved in HSC development were analyzed by qPCR.
The functional interaction of signaling processes in the zebrafish, down stream from PG, was explored by increasing camp production using forskolin and inhibiting PKA with H89. […] Furthermore, the rescue of dkk effects by dmPGE2 was eliminated by H89.
Heat shock activation/repression of wnt signaling: Embryonic heat-shock experiments were conducted at 38° C. for a duration of 20 minutes unless otherwise noted. Genotype was determined by the presence of GFP fluorescence at three hours post heat-induction, non-fluorescence (wild-type) siblings were used as controls.
(§1) In situ hybridization: Paraformaldehyde (PFA)-fixed embryos were processed for in situ hybridization using standard zebrafish protocols such as those found on the internet at, for example, ZFIN: The Zebrafish Model Organism Database (hosted by the Univ. Oregon, Eugene, Oreg.). The following RNA probes were used to detect alterations in endodermal and liver development: GFP, LFABP, sterol carrier protein, transferrin, foxA3, insulin, trypsin, and IFABP. Changes in expression compared to wild-type controls are reported as the # altered/# scored per genotype; a minimum of three independent experiments were conducted per analysis.

[2] = tested on: stem and progenitor cell population; test: hematopoietic recovery following irradiation in the adult zebrafish (kidney marrow); settings: ten days post irradiation; wnt8 induction 24-36 hours post irradiation
Protocol: It has been hypothesized that wnt activation regulates HSC self-renewal and repopulation. Wnt activation is also thought to be involved in carcinogenesis, however, making the concept of direct enhancement of wnt signaling problematic. Whether regulation of wnt activity by prostaglandin can effectively modulate HSC homeostasis in the adult, was determined by observing hematopoietic recovery following irradiation in the zebrafish. […] APCMin/+ mice have elevated β-catenin levels due to loss of APC function in the destruction complex.

[3] = tested on: endodermal and hepatic progenitor cells; test: endodermal progenitors (foxA3) and liver size (lfabp) in zebrafish embryos, in situ hybridization
From the text: To determine whether the interaction of PGE2 and wnt/β-catenin signaling is a conserved regulator of stem and progenitor cell populations in other tissues, endodermal and hepatic progenitor cells were examined during zebrafish development. […] ( 51/56), as detected by expression of liver fatty acid binding protein (lfabp). […] This finding is supported by the detection of various components of PGE2 signaling in foxA3 positive cells.
The APC mutant zebrafish to model constitutive activation of the wnt signaling pathway, was used to characterize the effects of the wnt/PG interaction in foxA3+ endodermal progenitors at 48 hpf. APC+/− embryos have enhanced foxA3 expression and an increased liver bud ( 88/93) as well as increased liver size ( 68/75) compared to wild-type siblings. […] Both cyclinD1 and cmyc were co-regulated by wnt and prostaglandin during development which may indicate that PGE2 exerts its effects on stem cells through enhanced cell cycling and proliferation.
as §1

COc1ccc2c(c1)c(CC(=O)O)c(C)n2C(=O)c1ccc(Cl)cc1 [indomethacin]
effects of wnt8/dkk1 induction on runx1, cmyb, flk1, ephB2 expression (qPCR) ([1]; indomethacin added to wnt8, dmPGE2 added to dkk1): could be modified | HSC formation reduced to or below wild-type levels after wnt8 induction (# altered/# scored) ([1]; wnt8 heat shock at ten somites, then 10 μM, 16-36 hpf): 43/46 | effect on wnt8-induced 2.5-fold increase in stem and progenitor cell population [2]: significantly diminished | decrease in liver size (# altered/# scored) ([3]; APC+/− embryos): 61/67 | decrease in foxA3 positive progenitor cells (# altered/# scored) ([3]; APC+/− embryos, 48 hpf): 33/39 | decreased foxA3 expression (# altered/# scored) ([3]; wild-type embryos): 67/71 | smaller liver, lfabp expression (# altered/# scored) ([3]; wild-type embryos, 72 h.p.f.): 51/56 | liver size / liver development compared to controls ([3]; zebrafish embryos, by 72 hours post-fertilization): marked reduction in liver size
